Here are results for six compounds from US20040244713A1, “Method for treating animals or masses of water with compositions comprising quinone compounds” (priority 2003, published 2004).

Data set [1] concerns Eurytemora Affinis. Particulars: in vivo.
Description: (§1) The table below lists the results of the toxicity tests performed on fish fauna and on some phyto- and zooplankton species considered among the possible targets of the claimed method.
Data set [2] concerns Dreissena Polimorfa Larvae. The data set can be described thus: Toxicity test LC50 on Dreissena Polimorfa larvae. As to conditions: for LC50 Dreissena Polimorfa Larvae: in vivo.
Description: as §1
For data set [3], the system named is Artemia Salina. The data set can be described thus: Toxicity test LC50 on Artemia Salina. As to conditions: in vivo.
Description: as §1
Data set [4] relates to Isochris Galbana. Briefly: Toxicity test LC50 on Isochris Galbana. The format is cell-based.
Description: as §1
Data set [5] concerns Rainbow trout. The data set can be described thus: Toxicity test LC50 on fish fauna, Rainbow trout. Type of data set: in vivo.
Description: as §1
Data set [6] can be described thus: Photodegradability in sunlight and UV light. The format is physicochemical. Particulars: 10-ppm solution in drinking water (pH 6.5-7.5). Here is the method:
In a fully similar manner, the same behaviour is confirmed if one assesses the photodegradability in sunlight and UV light (the radiation test was performed on a 10-ppm solution in drinking water (pH 6.5-7.5)

The conditions of data set [7]: OECD301 A guidelines, cited from earlier work.
Data set [8] is described as follows: Hydrolysis test performed in darkness. Type of data set: physicochemical.
The nature of data set [9]: Feeding trial in rabbits in the fattening stage (growth, mortality). As to conditions: in feed: Bacitracin zinc 1.5 ppm, MSB 250 ppm; for Final number of animals / Final average weight / Mortality %: end of fattening cycle (53 days after weaning); for Final number of animals: 200 animals initially; for Average daily growth: fattening cycle of 53 days after weaning. Type of data set: in vivo, New Zealand White rabbits. The method, then: The effect of a preparation comprising menadione sodium bisulfite coated with saturated vegetable fatty acids on rabbits in the fattening stage is evaluated.
Composition of the preparation (per Kg of final preparation):
MSB coated with hydrogenated vegetable fatty acids (1:1 inclusion ratio) 250 g;
This preparation is added in the quantity of 1 Kg per ton of feed, so that the final concentration of MSB is equal to 125 ppm/Kg of finished food. Since rabbits are fed with 120-150 grams of feed/day, the concentration of MSB is equal to an average daily dose of approximately 15-20 mg of MSB/animal per day.
New Zealand White animals, weaned at 32 days, were grown with the preparation cited above and compared with animals of the same race, fed with the same basic feed but treated with bacitracin zinc in a quantity equal to 150 mg/100 Kg of feed and with animals lacking any drug integration.

Data set [10] is described as follows: Biodegradability OECD 301 A (92/69/EEC C4-A). The format is physicochemical. From the text:
The degradability of a substance is normally a factor that is impossible to predict on a structural basis. […] On the basis of the available data related to the compounds that are chemically more similar to the derivatives of menadione described here, one could have expected a degradability comprised between the 0% (percentage calculated on the initial mass of product expressed as mg/l) of menadione (2-methyl-1,4-naphthalenedione) and the 17% (assessed after 28 days) of menadione sodium bisulfite (where the calculation was performed by using the OECD301 A guidelines annexed to EEC directive 92/69/EEC C4-A).
Finally, biodegradability according to the 92/69/EEC C4-A regulation was also assessed.

Data set [11] concerns Eurytemora Affinis. The data set can be described thus: Toxicity test LC50 on Eurytemora Affinis. As to conditions: in vivo.
Description: as §1

Where two headings read alike, the source gives them in different places.

For `Cc1ccc2c(c1)C(=O)c1ccccc1C2=O` [2-methyl-anthraquinone], the “LC50 Eurytemora Affinis” value in data set [1] is 5 ppm. Also, the “LC50 Dreissena Polimorfa Larvae” value in data set [2] is listed as 200 ppm. Besides, the “LC50 Artemia Salina” value in [3] is 5 ppm. For the same compound, the “LC50 Isochris Galbana” value in [4] turned out to be 0.5 ppm.

In the case of `CC1=CC(=O)c2ccccc2C1=O` [Menadione, 2-methyl-1,4-naphthalenedione, reference compound], in [1], the “LC50 Eurytemora Affinis” value amounted to 5 ppm. Also, the “LC50 Rainbow trout (assessed on 96 h)” value in data set [5] was 0.1 ppm. Besides, the “Light exp. Total Degr.” value in data set [6] is reported as above 5000 h. The “Light exp. ½ life” value in [6] was found to be 1500 h. Further, the “LC50 on Dreissena Polimorfa relative to 2-methyl-5-hydroxy-1,4-naphthalenedione” value in data set [2] (500 ppm vs 0.2 ppm) is 2500 times. In [2], the “LC50 Dreissena Polimorfa Larvae” value came out at 500 ppm. Moreover, the “degradability (percentage calculated on the initial mass of product expressed as mg/l)” value in data set [7] (available data, time not stated) is on record as 0%. The “½ LIFE, hydrolysis” value is listed as 1500 h in data set [8] (PH 6.8, in darkness) and 550 h in data set [8] (PH 9, in darkness). The “LC50 Artemia Salina” value in data set [3] stood at 5 ppm. Further, the “LC50 Isochris Galbana” value in [4] stood at 0.05 ppm.

Turning to `CC1(S(=O)(=O)[O-])CC(=O)c2ccccc2C1=O.[Na+]` (centres unmarked) [MSB, menadione sodium bisulfite], in data set [9], the “Final number of animals” value is 191, the Final average weight turned out to be 2.84 kilograms, the Mortality % was found to be 4.5% and the Average daily growth worked out at 38.1 grams. For the same compound, the “degradability (percentage calculated on the initial mass of product expressed as mg/l)” value in [7] (assessed after 28 days, available/reported data) is 17%. In addition, in data set [10] (after 7 days), the “% biodegr. OECD 301 A” value was determined as 5%. For the same compound, in [10] (after 14 days), the “% biodegr. OECD 301 A” value stood at 10%.

With `O=C1C=CC(=O)c2c(O)cccc21` [Juglone, 5-hydroxy-1,4-naphthalenedione, reference compound], the “Light exp. Total Degr.” value in [6] was 48 h. For the same compound, the “½ LIFE, hydrolysis” value in [8] (PH 9, in darkness) stood at 15 h.

Turning to `CC1=CC(=O)c2c(O)cccc2C1=O` [2-methyl-5-hydroxy-1,4-naphthalenedione], the “LC50 Eurytemora Affinis” value in [11] turned out to be 5 ppm. Besides, the “LC50 Dreissena Polimorfa Larvae” value in [2] was determined as 0.2 ppm. Besides, the “LC50 Artemia Salina” value in [3] was found to be 5 ppm. In addition, the “LC50 Isochris Galbana” value in [4] was 0.5 ppm.

For the compound bacitracin zinc [reference compound], in [9], the “Final number of animals” value is recorded as 185, the Final average weight was determined as 2.77 kilograms, the Mortality % is given as 7.5% and the Average daily growth is reported as 36.8 grams.
